# Data reported in patent US6410791B1, “Nitric esters and nitrate salts of specific drugs” (priority 1998, dated 2002).
# Where a name gives a salt, the structure may show the parent alone.
# What was measured:
# tracheal secretion = test: Mucolitic activity: phenol red in the tracheal secretion; assay type: in vivo; conditions: male mice, 264 micromoles/Kg i.p. ten minutes before phenol red 500 mg/Kg i.p.; % variation of absorbance versus control group = 100%
# Method: Mucolitic activity in male mice was evaluated according to the Method of Engler and Zselenyi, J. Pharm. Methods 11, 151, 1984. By this method it is determined the quantity of phenol red in the tracheal secretion. The animals were previously administered i.p. at a dose of 500 mg/Kg with the dye dissolved in physiologic solution. 3 groups of mice (weight 18±2 g), of 10 animal each, were treated i.p. with the dye. One group was the control group. Each of the two treated groups received, ten minutes before the above injection, an i.p. injection of 264 micromoles/Kg of Ambroxol nitrate or Ambroxol hydrochloride, respectively. 30 minutes after the phenol red injection, the animals were sacrificed. The trachea was freed from the surrounding tissues, dissected and washed for 30 minutes in 3 ml of physiologic solution. 0.1 ml of 1 M sodium hydroxide were then added to the physiologic solution. The washings were centrifuged for 15 minutes at 3000 rpm. A spectrophotometric assay was performed on the supernatant in order to determine the concentration of phenol red in the physiologic solution. Mucolitic activity was determined as % variation of absorbance of the sample in the confront of that of the control group, assumed to be 100%.
# histamine = test: Antihistaminic activity: experimental bronchoconstriction after i.v. histamine; assay type: in vivo; conditions: guinea pig, histamine 2 μg/Kg i.v., compound endovenously, percent values with respect to the control (vehicle = 100)
# [1] = system: cough stroke caused by the aerosol (citric acid); test: Anti-tussive activity: cough strokes caused by citric acid aerosol; assay type: in vivo, Guinea pigs; conditions: guinea pig, citric acid 7.5% aerosol, 110 micromoles/Kg i.p., 30 minutes after injection, counted for 10 minutes; control group = 100%
# Method: Guinea pigs (weight 430+20) were treated as described by Braga et Al. Arzneim. Forsch./Drug Res. 43, 550, 1993.
# In this pharmacological experiment 5 groups of 8 animals each were formed. One group was not treated and was the control group.
# Each animal was placed in a cylindrical glass container having one tubing through each of the two circular flat surfaces. Said tubing were, respectively, for the aerosol inlet and outlet. The outlet tubing is connected to a polygraphic system.
# The aerosol was formed from a solution 7.5% by weight of citric acid in water.
# The air variation inside the glass container was registered before and after a cough stroke caused by the aerosol. One hour later Dextromethorphan hydrochloride, Dextromethorphan nitrate, Dextrorphan hydrochloride and dextrorphan nitrate were i.p. administered in a physiologic solution at a dose of 110 micromoles/Kg. 30 minutes after the injection the animals were treated with the aerosol. It was then registered the number of cough strokes for a time of 10 minutes. In the following Table III are reported the average response obtained from each treated group, referred to that of the control group, made 100%.
# [2] = system: bronchoconstrictive response induced by capsaicin; test: Experimental bronchoconstriction induced by capsaicin (tidal air variation, Konzett apparatus); assay type: in vivo; conditions: guinea pig, capsaicin 1 μg/Kg i.v., 0.3 nmoles/min i.v. infusion for 15 minutes; percent values with respect to the control (carrier = 100)
# Method: (§1) Each groups consisted of eight animals. […] For a total 15 minutes, starting from 5 minutes before capsaicin injection to 10 minutes after) Salbutamol (0.3 nmoles/min), or the corresponding nitrate salt (0.3 nmoles/min) or only the carrier were administered by intravenous infusion were administered to each group.
# The heart frequency was determined by an electrocardiographic device, according to the usual methods. The average value of the heart frequency following administration of the vehicle was of 188±7 beats per minute.
# heart frequency = test: Heart frequency (tachycardia) by electrocardiographic device during the capsaicin bronchoconstriction test; assay type: in vivo; conditions: guinea pig, 0.3 nmoles/min i.v. infusion for 15 minutes; percent values with respect to the control (carrier = 100; vehicle 188±7 beats per minute)
# Method: as §1
# The heart frequency was determined by an electrocardiographic device, according to the usual methods.
structure (smiles),measurement,setting,value
Nc1c(Br)cc(Br)cc1CN[C@H]1CC[C@H](O)CC1 [Ambroxol hydrochloride],Mucolitic activity (%),tracheal secretion,30%
Nc1c(Br)cc(Br)cc1CNC1CCC(O)CC1 (stereo not drawn) [Ambroxol nitrate],Mucolitic activity (%),tracheal secretion,0%
O=C(O)COCCN1CCN(C(c2ccccc2)c2ccc(Cl)cc2)CC1 (stereo not drawn) [Cetirizine hydrochloride],Broncocostriction (%),histamine; hydrochloride,40%
O=C(O)COCCN1CCN(C(c2ccccc2)c2ccc(Cl)cc2)CC1 (stereo not drawn) [Cetirizine nitrate],Broncocostriction (%),histamine,0%
COc1ccc2c(c1)[C@]13CCCC[C@@H]1[C@H](C2)N(C)CC3 [Dextromethorphan hydrochloride],cough strokes (%),[1],30%
COc1ccc2c(c1)[C@@]13CCCC[C@H]1[C@@H](C2)N(C)CC3 [Dextromethorphan nitrate],cough strokes (%),[1],0%
CN1CC[C@@]23CCCC[C@@H]2[C@@H]1Cc1ccc(O)cc13 [Dextrorphan hydrochloride],cough strokes (%),[1],40%
CN1CC[C@]23CCCC[C@H]2[C@H]1Cc1ccc(O)cc13 [Dextrorphan nitrate],cough strokes (%),[1],0%
"CC(C)(C)NCC(O)c1ccc(O)c(CO)c1 (stereo not drawn) [Salbutamol.HNO3, Salbutamol nitrate]",Bronchoconstriction (%),[2],0%
same,Tachycardia (%),heart frequency,97%
CC(C)(C)NCC(O)c1ccc(O)c(CO)c1 (stereo not drawn) [Salbutamol],Bronchoconstriction (%),[2],0%
same,Tachycardia (%),heart frequency,116%
